Experimental data: patent publication US11667652B2, “MCL1 inhibitors” (Gilead Sciences, Inc., priority 2019, dated 2023)
pEC50, pIC50: −log10 of the molar value. Like-named read-outs stand apart in the source and are kept apart here.

How the values were obtained:
SKBR3 cells = test: SKBR3 Cell Viability Assay; assay type: cell-based; details: CellTiter Glo, read-out: MCL1 CV SKBR3 EC50
Protocol: SKBR3 Cell Viability Assay Materials
SKBR3 Cells (ATCC HTB-30) were obtained from ATCC (Manassas, Va.) and cultured in McCoy 5A's medium (ATCC 30-2007)+10% fetal bovine serum (SH30071.03, HyClone, Pittsburgh, Pa.) plus 1× Penicillin-Streptomycin L-glutamine (Corning 30-009-CI, Corning, N.Y.).
The cell viability assay was conducted in a 384-well tissue culture plate (Grenier 781086, Monroe, N.C.) in a total volume of 70 μL. Test compounds were prepared in 1,000×, serially diluted, and pre-spotted into 384-well tissue culture plate by Echo 555 Liquid Handler (Labcyte Inc., San Jose, Calif.). Seventy μL of 6,000 SKBR3 cells were dispensed into each well of the plate and incubated at 37° C. with 5% CO2 for 72 hours. At the end of incubation, 2× CellTiter Glo (CTG) reagents (1 part buffer with 2 parts substrate) (Promega, Madison, Wis.) were prepared, and the plate and the reagent were equilibrated to room temperature for 30 minutes. CTG reagent was added to each plate by Biomek FX at 20 μL/well with 5 times pipetting and mixing to induce cell lysis. Luminescence was read by Envision multimode reader (PerkinElmer). Percent inhibition was calculated as followed: % Inhibition=100%*(Well−Neg)/(Pos−Neg) Neg, negative control, DMSO Pos, positive control, 10 μM Puromycin

MCL1/Bim = MCL1/Bim (Homo sapiens (Human), UniProt Q07820); test: MCL1/Bim Binding AlphaLISA Assay; details: recombinant human 6xHis-MCL1 (171-327), biotinylated Bim peptide (51-76)
Protocol: MCL1/Bim Binding AlphaLISA Assay.
Inhibition of the MCL1 and Bim interaction was measured in the following AlphaLISA assay.
Recombinant human MCL1 protein (C-terminal 6×His Tagged MCL1 containing residues 171-327) was generated at Gilead Sciences, Inc. (Foster City, Calif.). A biotinylated peptide derived from human Bim (residues 51-76) was purchased from CPC Scientific (Sunnyvale, Calif.). (CPC 834113). AlphaLISA anti-6His- acceptor beads (AL128R), AlphaScreen Streptavidin donor beads (6760002B), and Proxiplate-384 Plus (6008289) were purchased from PerkinElmer.
The AlphaLISA assay was performed in a 384-well Proxiplate in a total volume of […]. The reaction mixture contained 0.0625 nM 6×His-MCL1 (171-327), 0.0625 nM biotinylated-Bim peptide, 10 μg/mL AlphaLISA anti-6×His-AlphaLISA acceptor beads, 40 μg/mL AlphaScreen streptavidin donor beads, and serially diluted test compounds in the binding buffer (20 mM Hepes, pH 7.5 (Teknova H1035); 150 mM NaCl (Promega V4221); 0.002% Brij 35 (Thermo Scientific 20150); 1 mM Dithiothreitol (DTT) Solution (Affymetrix 70726); 0.01% BSA (BioLabs B9000S)). 1,000× test compounds were pre-spotted onto 384-well Proxiplate (Labcyte Echo) by Echo 555 Liquid Handler (Labcyte Inc., San Jose, Calif.) followed by incubation of 5 μL MCL1(171-327) for 1 hour. Then 5 μL Bim (51-76) was added and incubated for 2 hours. Five μL AlphaLISA anti-6His-AlphaLISA acceptor beads were then added for 1 hour followed by addition of 5 μL AlphaScreen streptavidin donor beads for 1 hour. The reaction plates were then read on an Envision multimode reader (PerkinElmer) using AlphaScreen settings. Percent inhibition was calculated as shown below: % Inhibition=100%*(Well−Neg)/(Pos−Neg) Neg: negative control, DMSO Pos: positive control, no MCL1 protein, no biotinylated-Bim peptide

[1] = Homo sapiens, SK-BR-3, 72 hours

Chain of MCL1/Bim (Q07820 171-327): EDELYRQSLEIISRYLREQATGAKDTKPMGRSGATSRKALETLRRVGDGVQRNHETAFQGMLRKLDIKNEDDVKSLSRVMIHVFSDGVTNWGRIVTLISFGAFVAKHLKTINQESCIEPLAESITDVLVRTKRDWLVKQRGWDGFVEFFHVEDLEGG

pEC50 (SKBR3 cells; [1])	pIC50 (MCL1/Bim)	pEC50 (SKBR3 cells; 72 hours)	Structure (SMILES)
5.36	10.19	–	C[C@H]1C/C=C/[C@H](O)[C@@H]2CC[C@H]2CN2C[C@@]3(CCCc4cc(Cl)ccc43)COc3ccc(cc32)C(=O)N=[S@](=O)(Nc2nc3nnnn3c3nn(C)cc23)C1 (mixture of isomers) [Example 31]
8.00	10.48	–	COc1nn(C)cc1C(=O)N[S@@]1(=O)=NC(=O)c2ccc3c(c2)N(C[C@@H]2CC[C@H]2[C@@H](OC)/C=C/C(O)(CC(=O)N(C)C)[C@H](C)C1)C[C@@]1(CCCc2cc(Cl)ccc21)CO3 (mixture of isomers) [Example 124]
–	9.85	5.92	COc1nn(C)cc1C(=O)N[S@@]1(=O)=NC(=O)c2ccc3c(c2)N(C[C@@H]2CC[C@H]2/C=C/CC[C@H](C)C1)C[C@@]1(CCCc2cc(Cl)ccc21)CO3 (mixture of isomers) [Example 129]
–	9.34	5.59	COc1nn(C)cc1C(=O)N[S@@]1(=O)=NC(=O)c2ccc3c(c2)N(C[C@@H]2CC[C@H]2C/C=C/C[C@H](C)C1)C[C@@]1(CCCc2cc(Cl)ccc21)CO3 (mixture of isomers) [Example 130]
–	8.75	6.25	CCCO[C@H]1/C=C/C[C@H](C)C[S@@](=O)(NC(=O)c2cn(C)nc2OC)=NC(=O)c2ccc3c(c2)N(C[C@@H]2CC[C@H]21)C[C@@]1(CCCc2cc(Cl)ccc21)CO3 (mixture of isomers) [Example 137]
–	8.81	5.98	COc1nn(C)cc1C(=O)N[S@@]1(=O)=NC(=O)c2ccc3c(c2)N(C[C@@H]2CC[C@H]2[C@H]2OCCCC2CC[C@H](C)C1)C[C@@]1(CCCc2cc(Cl)ccc21)CO3 (mixture of isomers) [Example 138]
6.94	10.46	–	COc1nn(C)cc1C(=O)N[S@@]1(=O)=NC(=O)c2ccc3c(c2)N(C[C@@H]2CC[C@H]2[C@H]2OC(O)C[C@@H]2CC[C@H](C)C1)C[C@@]1(CCCc2cc(Cl)ccc21)CC3 (mixture of isomers) [Example 150]
7.05	10.14	–	COc1nn(C)cc1C(=O)N[S@@]1(=O)=NC(=O)c2ccc3c(c2)N(C[C@@H]2CC[C@H]2[C@H]2OCC[C@@H]2C[C@H](OC)[C@H](C)C1)C[C@@]1(CCCc2cc(Cl)ccc21)CO3 (mixture of isomers) [Example 155]
7.50	10.22	–	CO[C@H]1/C=C/C[C@H](C)C[S@@](=O)(NC(=O)N[C@H]2C[C@@H]2OC)=NC(=O)c2ccc3c(n2)N(C[C@@H]2CC[C@H]21)C[C@@]1(CCCc2cc(Cl)ccc21)CO3 (mixture of isomers) [Example 188]
7.09	10.40	–	COc1nn(C)cc1C(=O)N[S@@]1(=O)=NC(=O)c2ccc3c(n2)N(C[C@@H]2CC[C@H]2[C@@H](OC)/C=C/[C@H](O)[C@H](C)C1)C[C@@]1(CCCc2cc(Cl)ccc21)CO3 (mixture of isomers) [Example 196]
5.86	9.66	–	CO[C@H]1/C=C/C[C@H](C)C[S@@](=O)(Nc2cnccn2)=NC(=O)c2ccc3c(c2)N(C[C@@H]2CC[C@H]21)C[C@@]1(CCCc2cc(Cl)ccc21)CO3 [Example 1]
6.62	9.71	–	CO[C@H]1/C=C/C[C@H](C)C[S@@](=O)(Nc2ncnc3c2cnn3C)=NC(=O)c2ccc3c(c2)N(C[C@@H]2CC[C@H]21)C[C@@]1(CCCc2cc(Cl)ccc21)CO3 [Example 4]
5.38	9.23	–	CO[C@H]1/C=C/C[C@H](C)C[S@@](=O)(Nc2cnc(C#N)cn2)=NC(=O)c2ccc3c(c2)N(C[C@@H]2CC[C@H]21)C[C@@]1(CCCc2cc(Cl)ccc21)CO3 [Example 5]
5.36	9.05	–	CO[C@H]1/C=C/C[C@H](C)C[S@@](=O)(Nc2cncc(C#N)n2)=NC(=O)c2ccc3c(c2)N(C[C@@H]2CC[C@H]21)C[C@@]1(CCCc2cc(Cl)ccc21)CO3 [Example 6]
5.09	–	–	CO[C@H]1/C=C/C[C@H](C)C[S@@](=O)(Nc2nc(Cl)nc3cn(C)nc23)=NC(=O)c2ccc3c(c2)N(C[C@@H]2CC[C@H]21)C[C@@]1(CCCc2cc(Cl)ccc21)CO3 [Example 16]
